Measured values reported in PMC10077203, “Structure modification, antialgal, antiplasmodial, and toxic evaluations of a series of new marine-derived 14-membered resorcylic acid lactone derivatives” (Marine Life Science & Technology, 2021).
Converted amounts (≈) assume the structure as drawn.

Legend:
[1] = tested on: P. tricornutum Bohlin, C. vulgaris, C. socialis, N. laevissima, and N. exigua; test: Diatom growth inhibition assay, whole panel; assay type: cell-based; settings: Chlorella vulgaris; selective and moderate activities; read-out: EC50 antialgal, range over compounds and algae
Protocol: (§1) The antialgal activity against the microalgae P. tricornutum Bohlin, C. vulgaris, C. socialis, N. laevissima, and N. exigua was evaluated by the method of Ortlepp et al. ([2008]). Briefly, the microalgae were grown in sterilized BG11 medium under light intensity of 2500 lx and 12 h: 12 h light: dark cycle at temperature of 20 ℃. The microalgae were grown to reach the logarithmic phase (approximately 5 × 10^5 cells/ml), which were used for microalgae growth inhibition assay. The compounds 1–71 were first dissolved in a small amount of DMSO and then diluted with 0.22 μm of filtered seawater (FSW) to achieve a range of concentrations from 0.625 to 50 μg/ml. Ten microliters of the compound solution was added to multiwell Petri dishes containing a 1-mL suspension of the microalgae (approximately 12 × 10^4 cells/ml). FSW with DMSO was used as a negative control, and solutions of SeaNine 211 in seawater were used as positive controls. After the plates were incubated for 48 h (16 ± 1 ℃) under continuous light, the FSW with non-attached microalgae was removed. The amount of chlorophyll a in attached microalgae was determined with a spectrophotometer (Beckman, model DU650, USA). Then the EC50 (inhibits 50% of settlement of cyprids in comparison with the control) was calculated using the Probit software program.

Staphylococcus aureus = test: Antimicrobial assay (serial dilution, MIC); assay type: cell-based; settings: 37 °C, 24 h, read-out: minimum inhibitory concentration (MIC) S. aureus
Protocol: The antimicrobial activities were carried out by a serial dilution technique using 96-well microtiter plates (Pierce et al. [2008]). The derivatives were dissolved in DMSO to obtain a stock solution. Microbial species were cultured overnight at 37 °C in LB broth and diluted to 10^6 cfu/ml when used. LB broth was used as a blank control, and DMSO was used as a negative control, while ciprofloxacin was used as a positive control. The plates were incubated at 37 °C for 24 h.

C. vulgaris = test: Diatom growth inhibition assay (antialgal activity); assay type: cell-based, Chlorella vulgaris; settings: Chlorella vulgaris; 48 h, chlorophyll a of attached microalgae; read-out: EC50 C. vulgaris
Protocol: as §1

N. exigua = test: as above; assay type: cell-based, Navicula exigua; settings: 48 h, chlorophyll a of attached microalgae, read-out: EC50 N. exigua
Protocol: as §1

P. tricornutum Bohlin = test: as above; assay type: cell-based, Phaeodactylum tricornutum Bohlin; settings: Phaeodactylum tricornutum, 48 h, chlorophyll a of attached microalgae, read-out: EC50 P. tricornutum
Protocol: as §1

C. socialis = test: as above; assay type: cell-based, Chaetoceros socialis; settings: Chaetoceros socialis, 48 h, chlorophyll a of attached microalgae, read-out: EC50 C. socialis
Protocol: as §1

zebrafish embryos = test: Zebrafish embryo toxicity test; assay type: in vivo; settings: for survival of zebrafish embryos: 100 μmol/L, 52 h
Protocol: Toxicity assays were carried out using the method of Wang et al. ([2011]). Briefly, the normal embryos were selected and transferred into a 24-well plate. The embryos at 1 h postfertilization (hpf) were exposed by immersion in E3 embryo medium containing the derivative in a 1% (v/v) DMSO final solvent concentration in a 24-well plate. The developmental phenotypes of the experimental status of the embryos were observed every 24 h for 72 h and were photographed with a charge-coupled device (CCD) camera.

N. laevissima = test: Diatom growth inhibition assay (antialgal activity); assay type: cell-based, Navicula laevissima; settings: Sellaphora laevissima, 48 h, chlorophyll a of attached microalgae, read-out: EC50 N. laevissima
Protocol: as §1

[2] = In vitro cytotoxicity (CC50); assay type: cell-based; settings: human, HUVEC cells
Source text: Toxicity is a major concern of drug discovery and development, and the selectivity index (SI) is used as the evaluation parameter of drug potential of the test samples by comparing the toxicity on a human cell line (CC50) and the selective inhibitory effect on P. falciparum (IC50) calculated here as CC50/IC50. We decided to evaluate in vitro cytotoxicity of the active derivatives 38, 39, 50, 52, 65, 67, 70, and 71 by determining their 50% cytotoxic concentrations. The results are presented in Table 3, presenting only those CC50 values > 100 μmol/L, reaching selectivity indexes > 10. The cytotoxic concentration at 150 μmol/L was not be determined because of a lack of solubility of the tested molecule in the culture medium. Moreover, the toxicity of these derivatives was also evaluated against two other cell lines: hepatocellular liver carcinoma cell line (Hep G2) and cervical carcinoma (HeLa), finding CC50 values > 100 μmol/L.

[3] = tested on: chloroquine sensitive HB3 strain of P. falciparum; test: In vitro antiplasmodial assay (Pico-Green growth inhibition); assay type: cell-based, Plasmodium falciparum; settings: for P. falciparum SI, Selectivity Index (CC50/IC50): CC50 HUVEC / IC50 P. falciparum; for IC50: Plasmodium falciparum, Erythrocyte, HB3 strain in human erythrocytes, read-out: P. falciparum IC50
Protocol: In vitro antiplasmodial activity was performed by culturing human erythrocytes and infecting them with P. falciparum, as reported by Trager and Jensen ([1976]). Briefly, the chloroquine sensitive HB3 strain of P. falciparum-infected O + erythrocytes was cultured in RPMI 1640 medium supplemented with 10% human serum (from O + blood) at a hematocrit of 2% erythrocytes at 37 °C with a gas mixture containing 90% N2, 5% CO2, and 5% O2. Parasites were synchronized with 5% D-sorbitol (Lambros and Vanderberg [1979]). P. falciparum growth inhibition bioassays were performed with the procedure as described by Corbett et al. ([2004]), which used Pico-Green, a double stranded-DNA fluorescent dye to test the effect of compounds.

[4] = tested on: larval settlement of the barnacle Balanus Amphitrite; design: method as in Shao et al. [2011]; settings: ref Shao et al. [2011]; cited from earlier work

Work on COc1cc2c(c(OCc3ccc(C(C)(C)C)cc3)c1)C(=O)OC(C)CC=CC(O)C(O)C(O)CC=C2 (centres unmarked) [Compound 26] yielded an EC50 [1] of 11 to 32.5 µM, an MIC (Staphylococcus aureus) of 25 µM (≈ 12.8 µg/mL) and an EC50 (C. vulgaris) of over 10 µM. The EC50 (N. exigua) was over 10 µM, the EC50 (P. tricornutum Bohlin) was 25.7 µM and the EC50 (C. socialis) was 18.4 µM. The “death of zebrafish embryos” value (zebrafish embryos; 50 μmol/L, after 24 h) was “all embryos died” and the EC50 (N. laevissima) was over 10 µM.

For COc1cc2c(c(OCc3ccc(-c4ccccc4C#N)cc3)c1)C(=O)OC(C)CC=CC1OC(C)(C)OC1C(O)CC=C2 (centres unmarked) [Compound 38], the CC50 [2] was over 100 µM, the “P. falciparum SI, Selectivity Index (CC50/IC50)” value [3] was over 12 and the IC50 [3] was 8.06 µM. For the same compound, the “survival of zebrafish embryos” value (zebrafish embryos) was “All embryos survived”.

For COC(=O)c1ccccc1-c1ccc(COc2cc(OC)cc3c2C(=O)OC(C)CC=CC2OC(C)(C)OC2C(O)CC=C3)cc1 (centres unmarked) [Compound 39], the CC50 [2] was over 100 µM, the “P. falciparum SI, Selectivity Index (CC50/IC50)” value [3] was over 14 and the IC50 [3] was 6.69 µM. For the same compound, the “survival of zebrafish embryos” value (zebrafish embryos) was “All embryos survived”.

In the case of COc1cc(O)c2c(c1)/C=C/C[C@H](O)[C@@H]1OC(C)(C)O[C@H]1C=CC[C@H](C)OC2=O [cochliomycin A], the “concentration of significant antifouling activity against larval settlement” value [4] is listed as 1.2 µg/mL.
